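Values below derive from 48-hour exposures of cells grown in 96-well plates, with endpoints linearly interpolated between the two concentrations bracketing the appropriate inhibition level. At the GI50, growth is halved.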 Activity calls are given as the source filed them. No stated cut-off is given here; in the data, active = GI50 up to about 1.1 µM and inactive = higher.

Test systems include UACC-62; CCRF-CEM; NCI/ADR-RES; OVCAR-3; UO-31; SNB-19; SF-539; CAKI-1; SW-620; SR; HCC 2998; NCI-H23; SNB-75; PC-3; SF-268; DU-145; SK-MEL-28; HOP-62; MOLT-4; RXF 393.
What all share (test): growth of human tumour cells (NCI), 48 h

`CCCCCCCCCCCC(=O)c1c(O)cc(C)oc1=O`: the GI50 in the assay with UACC-62 is 49.7 µM (inactive); in the assay on CCRF-CEM, 23.7 µM (inactive); in the assay on NCI/ADR-RES, 33.4 µM (inactive); in the assay with OVCAR-3 it was 55.5 µM (inactive); with UO-31, 40.6 µM (inactive); with SNB-19, 62.7 µM (inactive). For the same molecule, the GI50 in the assay on SF-539 is 23.8 µM (inactive); with CAKI-1, 40.4 µM (inactive); in the assay with SW-620, 41.1 µM (inactive); in the assay on SR it was > 10 µM (inactive); in the assay on HCC 2998, 42 µM (inactive); with NCI-H23, 34.8 µM (inactive). For the same molecule, the GI50 was 36.4 µM (inactive) in the assay with SNB-75; 27.2 µM (inactive) in the assay on PC-3; 42.2 µM (inactive) in the assay with SF-268; 48.3 µM (inactive) in the assay on DU-145; 75 µM (inactive) in the assay on SK-MEL-28; 60 µM (inactive) with HOP-62. Besides, the GI50 with MOLT-4 is 23.1 µM (inactive).
In the case of `CC(C)(C)c1cc(C(=O)C2Cc3ccccc3C(=O)O2)cc(C(C)(C)C)c1O` (centres undefined), the GI50 in the assay on UACC-62 was 12.1 µM (inactive); with CCRF-CEM, 5.01 µM (inactive); with NCI/ADR-RES, 13 µM (inactive); in the assay on OVCAR-3, 12.2 µM (inactive); in the assay on UO-31 it was 11.2 µM (inactive); in the assay on SNB-19 it was 11.8 µM (inactive). The GI50 with SF-539 is 14.2 µM (inactive); in the assay with CAKI-1, 19.3 µM (inactive); in the assay with SW-620, 10.3 µM (inactive); in the assay on SR it was 3.59 µM (inactive); in the assay with NCI-H23, 13.9 µM (inactive); with SNB-75, 17.3 µM (inactive). The GI50 in the assay with PC-3 was 11.7 µM (inactive); with SF-268, 14.5 µM (inactive); in the assay on DU-145, 14.8 µM (inactive); with SK-MEL-28, 15.8 µM (inactive); in the assay on HOP-62 it was 13.7 µM (inactive); in the assay with RXF 393 it was 12.1 µM (inactive). In addition, in the assay on MOLT-4, the GI50 is 8.55 µM (inactive).
With `O=c1c2cc(S(=O)(=O)Nc3ccc(Cl)cc3Cl)ccc2ncn1NS(=O)(=O)c1cccc2ccccc12`, the GI50 with UACC-62 was 28.9 µM (inactive); in the assay with CCRF-CEM, 12.7 µM (inactive); in the assay with NCI/ADR-RES, 31.3 µM (inactive); with OVCAR-3 it was 33.9 µM (inactive); in the assay on UO-31 it was 14.1 µM (inactive); with SNB-19, 21.6 µM (inactive). Moreover, the GI50 in the assay on SF-539 is 38.3 µM (inactive); in the assay on CAKI-1 it was 15.7 µM (inactive); with SW-620 it was 71.4 µM (inactive); in the assay with SR it was 22.9 µM (inactive); in the assay on HCC 2998, 20 µM (inactive); in the assay on NCI-H23, 40.4 µM (inactive). Moreover, the GI50 was 60.5 µM (inactive) with SNB-75; 23.7 µM (inactive) with PC-3; 30.3 µM (inactive) with SF-268; 36.5 µM (inactive) in the assay on DU-145; 99.5 µM (inactive) in the assay on SK-MEL-28; 41.3 µM (inactive) in the assay with HOP-62. Moreover, in the assay on MOLT-4, the GI50 was 18.2 µM (inactive).
`CCC1(O)CC(OC2CC(N(C)C)C(OC3CC(O)C(OC4OC(C)C(=O)C=C4N)C(C)O3)C(C)O2)c2c(O)c3c(c(O)c2C1C(=O)OC)C(=O)c1cccc(O)c1C3=O` (centres undefined): the GI50 is 0.0106 µM (active) in the assay with UACC-62; 0.00284 µM (active) in the assay on CCRF-CEM; 0.0916 µM (active) with NCI/ADR-RES; 0.0225 µM (active) in the assay with OVCAR-3; 0.0472 µM (active) in the assay on UO-31; 0.00929 µM (active) in the assay on SNB-19. Further, the GI50 was 0.00759 µM (active) in the assay on SF-539; 0.00489 µM (active) in the assay on CAKI-1; 0.00225 µM (active) in the assay on SW-620; 0.00413 µM (active) in the assay with SR; 0.0302 µM (active) in the assay with HCC 2998; 0.0189 µM (active) in the assay with NCI-H23. The GI50 is 0.0311 µM (active) in the assay on SNB-75; 0.00535 µM (active) in the assay on PC-3; 0.0925 µM (active) in the assay on SF-268; 0.00686 µM (active) with DU-145; 0.0105 µM (active) with SK-MEL-28; 0.0239 µM (active) in the assay on HOP-62. In addition, in the assay on MOLT-4, the GI50 is 0.00231 µM (active).
For `O=c1ccn(C2OC(CO)C(O)C2F)c(=O)n1Cc1ccccc1` (centres undefined), the GI50 in the assay with UACC-62, in the assay on CCRF-CEM, with NCI/ADR-RES, with OVCAR-3, with UO-31 and with SNB-19 was > 100 µM (inactive) in each case. Further, the GI50 with SF-539, in the assay on CAKI-1, in the assay on SW-620, with SR, in the assay with NCI-H23 and in the assay with SNB-75 was > 100 µM (inactive) in each case. Further, the GI50 in the assay on PC-3, in the assay with SF-268, in the assay on DU-145, in the assay on SK-MEL-28, in the assay on HOP-62 and in the assay with RXF 393 was > 100 µM (inactive) each time. Moreover, in the assay on MOLT-4, the GI50 is > 100 µM (inactive).
As for `COC(=O)[C@]1(C)CCCC2(C)C3=C(CCC21)CC1(CC3)SCCS1` (some centres undefined), the GI50 in the assay with UACC-62, in the assay with CCRF-CEM, in the assay with NCI/ADR-RES, in the assay on OVCAR-3, in the assay with SNB-19 and in the assay on SF-539 was > 10 µM (inactive) each time. Also, the GI50 with CAKI-1, in the assay on SW-620, with SR, in the assay on HCC 2998, with NCI-H23 and in the assay with SNB-75 was > 10 µM (inactive) each time. Also, the GI50 with PC-3, in the assay with SF-268, in the assay on DU-145, in the assay on SK-MEL-28, in the assay with HOP-62 and in the assay on MOLT-4 was > 10 µM (inactive) throughout.
As to `O=c1oc2cc(/N=C/c3ccc4c(c3)OCO4)ccc2c2ccccc12`, the GI50 with UACC-62 is 55.8 µM (inactive); in the assay with CCRF-CEM, 50.4 µM (inactive); with NCI/ADR-RES it was 77.1 µM (inactive); in the assay with OVCAR-3, > 100 µM (inactive); in the assay on UO-31 it was 70 µM (inactive); with SNB-19, 50.2 µM (inactive). Further, the GI50 with SF-539 was 47 µM (inactive); in the assay with CAKI-1, 65 µM (inactive); in the assay on SW-620, 97.9 µM (inactive); in the assay on SR, 25.5 µM (inactive); in the assay on NCI-H23, > 100 µM (inactive); in the assay with SNB-75, 15 µM (inactive). Moreover, the GI50 in the assay on PC-3 is > 100 µM (inactive); in the assay with SF-268, 61 µM (inactive); in the assay with DU-145, > 100 µM (inactive); in the assay on SK-MEL-28, > 100 µM (inactive); in the assay with HOP-62, 36 µM (inactive); in the assay with RXF 393, 19.2 µM (inactive). The GI50 in the assay with MOLT-4 is 33.3 µM (inactive).
For the molecule `O=C1C(/C=N/CCc2c[nH]c3ccccc23)C(C(F)(F)F)=NN1c1nc2ccccc2s1` (centres undefined), the GI50 is 19.5 µM (inactive) in the assay with UACC-62; 19.5 µM (inactive) with CCRF-CEM; 26.7 µM (inactive) in the assay on NCI/ADR-RES; 20.7 µM (inactive) with OVCAR-3; 31.3 µM (inactive) in the assay with UO-31; 36.5 µM (inactive) in the assay with SNB-19. Also, the GI50 is 31.1 µM (inactive) in the assay on SF-539; 37.2 µM (inactive) in the assay on CAKI-1; 38.9 µM (inactive) in the assay on SW-620; 31.6 µM (inactive) in the assay on SR; 30.8 µM (inactive) in the assay with NCI-H23; 24.8 µM (inactive) in the assay with SNB-75. Besides, the GI50 in the assay with PC-3 is 31 µM (inactive); in the assay on SF-268 it was 50.5 µM (inactive); in the assay with DU-145, 23.3 µM (inactive); in the assay on SK-MEL-28 it was 33.3 µM (inactive); with HOP-62 it was 20.4 µM (inactive); in the assay with RXF 393, 15 µM (inactive). The GI50 in the assay on MOLT-4 is 21.1 µM (inactive).
As for `N#Cc1c(-c2ccccc2)c(C#N)c(=S)n(C2OCC(O)C(O)C2O)c1N` (centres undefined), the GI50 in the assay on UACC-62, in the assay on CCRF-CEM, in the assay with NCI/ADR-RES, with OVCAR-3, in the assay on UO-31 and with SNB-19 was > 100 µM (inactive) throughout. Also, the GI50 in the assay with SF-539, in the assay on CAKI-1, in the assay on SW-620, in the assay with SR, with HCC 2998 and with NCI-H23 was > 100 µM (inactive) throughout. The GI50 with SNB-75, in the assay on PC-3, in the assay on SF-268, in the assay on DU-145, in the assay on SK-MEL-28 and in the assay with HOP-62 was > 100 µM (inactive) throughout. Also, the GI50 in the assay with MOLT-4 is > 100 µM (inactive).
For the molecule `COC(=O)C1CCC(=O)N1C(c1ccc(OC)cc1)c1ccc(OC)cc1` (centres undefined), the GI50 in the assay with UACC-62, with CCRF-CEM, with NCI/ADR-RES, with OVCAR-3, in the assay with UO-31 and in the assay on SNB-19 was > 100 µM (inactive) throughout. Besides, the GI50 in the assay on SF-539, with CAKI-1, in the assay on SW-620, in the assay on SR, in the assay on HCC 2998 and with NCI-H23 was > 100 µM (inactive) throughout. Also, the GI50 in the assay with SNB-75, in the assay on PC-3, in the assay on SF-268, with DU-145, in the assay on SK-MEL-28 and in the assay on HOP-62 was > 100 µM (inactive) in each case. Also, in the assay on MOLT-4, the GI50 was > 100 µM (inactive).

(Values after ChEMBL document CHEMBL1201862, “PubChem BioAssay data set” (2004).)
